From patent publication US8802700B2 (Vertex Pharmaceuticals Incorporated, priority 2010, dated 2014)

Each molecule was assayed against T1, ΔF508-CFTR (Homo sapiens, UniProt P13569, DEL508-508) (assay: Membrane potential optical assay (FRET voltage-sensor dyes, VIPR), identification of potentiator compounds). Details: Table 3; assay not given.
T1 construct: expressed in transfected cells
Assay type: cell-based
Outline: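 NIH3T3 mouse fibroblasts stably expressing ΔF508-CFTR, cultured 24 h at 27 °C, were loaded with FRET voltage dyes CC2-DMPE and DiSBAC2(3). Double-addition format: first addition of Cl⁻-free (gluconate) medium with or without compound; membrane-potential change read as fluorescence on VIPR II.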

T1 sequence (P13569 with tags, fused parts or gaps DEL508-508): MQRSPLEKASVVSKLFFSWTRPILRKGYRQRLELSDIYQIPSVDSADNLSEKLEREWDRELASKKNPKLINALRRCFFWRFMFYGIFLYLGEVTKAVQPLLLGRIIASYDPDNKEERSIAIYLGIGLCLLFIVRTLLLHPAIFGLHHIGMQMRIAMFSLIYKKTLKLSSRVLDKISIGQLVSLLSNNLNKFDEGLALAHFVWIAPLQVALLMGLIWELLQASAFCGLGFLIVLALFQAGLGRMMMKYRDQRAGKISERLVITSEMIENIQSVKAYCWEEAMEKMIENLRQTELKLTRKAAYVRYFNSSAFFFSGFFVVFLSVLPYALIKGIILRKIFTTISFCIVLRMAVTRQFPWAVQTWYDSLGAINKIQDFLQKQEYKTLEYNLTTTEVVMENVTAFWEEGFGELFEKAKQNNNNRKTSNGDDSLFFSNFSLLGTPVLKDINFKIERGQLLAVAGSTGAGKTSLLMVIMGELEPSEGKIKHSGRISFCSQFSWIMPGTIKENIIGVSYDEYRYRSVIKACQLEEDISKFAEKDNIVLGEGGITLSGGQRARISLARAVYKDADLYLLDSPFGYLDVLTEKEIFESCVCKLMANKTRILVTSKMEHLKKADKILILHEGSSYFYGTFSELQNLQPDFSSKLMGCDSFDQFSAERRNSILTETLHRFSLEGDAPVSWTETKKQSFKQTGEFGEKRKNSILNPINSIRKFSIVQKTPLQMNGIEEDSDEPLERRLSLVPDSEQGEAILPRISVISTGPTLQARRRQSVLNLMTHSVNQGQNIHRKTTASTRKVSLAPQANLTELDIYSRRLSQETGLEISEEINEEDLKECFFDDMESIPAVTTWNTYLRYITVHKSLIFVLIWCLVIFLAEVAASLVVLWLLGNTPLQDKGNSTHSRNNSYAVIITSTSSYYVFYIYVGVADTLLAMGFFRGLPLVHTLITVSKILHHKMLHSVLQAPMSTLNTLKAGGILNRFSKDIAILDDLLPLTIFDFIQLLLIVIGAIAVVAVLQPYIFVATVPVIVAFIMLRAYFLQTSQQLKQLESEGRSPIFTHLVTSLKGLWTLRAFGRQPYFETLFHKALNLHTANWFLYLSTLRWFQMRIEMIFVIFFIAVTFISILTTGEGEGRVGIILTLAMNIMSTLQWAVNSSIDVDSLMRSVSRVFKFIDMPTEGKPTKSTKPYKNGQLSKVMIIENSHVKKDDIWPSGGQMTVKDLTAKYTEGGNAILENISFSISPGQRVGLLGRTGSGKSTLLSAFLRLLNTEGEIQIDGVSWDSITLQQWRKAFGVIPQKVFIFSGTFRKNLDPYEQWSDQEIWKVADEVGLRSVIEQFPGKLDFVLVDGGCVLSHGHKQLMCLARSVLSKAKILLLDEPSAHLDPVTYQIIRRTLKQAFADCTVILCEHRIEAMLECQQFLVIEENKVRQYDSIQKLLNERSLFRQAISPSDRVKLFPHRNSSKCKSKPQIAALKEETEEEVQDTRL

Row | EC50 [µM] | SMILES
1 | 10 to 25 | CS(=O)(=O)Nc1cccc(NC(=O)c2c[nH]c3ccccc3c2=O)c1 [Compound 214, N-(3-methylsulfonylaminophenyl)-4-oxo-1H-quinoline-3-carboxamide]

Same assay, conditions: Table 3; assay not given; read-out: % Activity (% Efficacy, relative efficacy)

Row | Emax [%] | SMILES
2 | 25 to 100 | CCCc1ccc(NC)cc1NC(=O)c1c[nH]c2ccccc2c1=O [Compound 356, N-(5-methylamino-2-propyl-phenyl)-4-oxo-1H-quinoline-3-carboxamide]
3 | > 100 | COc1cc2[nH]cc(C(=O)Nc3cc(O)c(C(C)(C)C)cc3C(C)(C)C)c(=O)c2cc1F [Compound 617, 6-fluoro-N-(5-hydroxy-2,4-ditert-butyl-phenyl)-7-methoxy-4-oxo-1H-quinoline-3-carboxamide]
4 | 25 to 100 | CCc1cccc(C(C)CC)c1NC(=O)c1c[nH]c2ccccc2c1=O (centres unmarked) [Compound 322, N-(2-ethyl-6-sec-butyl-phenyl)-4-oxo-1H-quinoline-3-carboxamide]
5 | < 25 | Cc1cccc2c(=O)c(C(=O)Nc3ccc(C(C)C)cc3C(F)(F)F)c[nH]c12 [Compound 637, N-[4-isopropyl-2-(trifluoromethyl)phenyl]-8-methyl-4-oxo-1H-quinoline-3-carboxamide]
6 | 25 to 100 | COc1ccc2c(=O)c(C(=O)Nc3ccc(N4CCC[C@@H]4C)cc3C(F)(F)F)c[nH]c2c1 [Compound 642, (S)-7-methoxy-N-(4-(2-methylpyrrolidin-1-yl)-2-(trifluoromethyl)phenyl)-4-oxo-1,4-dihydroquinoline-3-carboxamide]
7 | 25 to 100 | O=C(Nc1ccc2cc[nH]c2c1)c1c[nH]c2cccc(O)c2c1=O [Compound 116, 5-hydroxy-N-(1H-indol-6-yl)-4-oxo-1H-quinoline-3-carboxamide]
8 | 25 to 100 | CCCCCc1ccc(NC(=O)c2c[nH]c3ccccc3c2=O)cc1 [Compound 99, 4-oxo-N-(4-pentylphenyl)-1H-quinoline-3-carboxamide]
9 | 25 to 100 | COc1cc(NC(=O)c2c[nH]c3ccc(F)cc3c2=O)cc(C(F)(F)F)c1 [Compound 666, 6-fluoro-N-[3-methoxy-5-(trifluoromethyl)phenyl]-4-oxo-1H-quinoline-3-carboxamide]
10 | 25 to 100 | O=C(Nc1ccccc1N1CCOCC1)c1c[nH]c2ccccc2c1=O [Compound 4, N-(2-morpholinophenyl)-4-oxo-1H-quinoline-3-carboxamide]
11 | < 25 | CC(C)(C)c1cc(C(C)(C)C)c(NC(=O)c2c[nH]c3c(C(F)(F)F)cccc3c2=O)cc1O [Compound 580, N-(5-hydroxy-2,4-ditert-butyl-phenyl)-4-oxo-8-(trifluoromethyl)-1H-quinoline-3-carboxamide]
12 | 25 to 100 | CCOCCOc1cc(NC(=O)c2c[nH]c3ccccc3c2=O)ccc1C(C)(C)C [Compound 161, N-[3-(2-ethoxyethoxy)-4-tert-butyl-phenyl]-4-oxo-1H-quinoline-3-carboxamide]
13 | 25 to 100 | CC(C)(C)c1cc(C(C)(C)C)c(NC(=O)c2c[nH]c3ccc(S(=O)(=O)N4CCCC4)cc3c2=O)cc1O [Compound 255, N-(5-hydroxy-2,4-ditert-butyl-phenyl)-4-oxo-6-pyrrolidin-1-ylsulfonyl-1H-quinoline-3-carboxamide]
14 | 25 to 100 | Cc1ccccc1-c1ccccc1NC(=O)c1c[nH]c2ccccc2c1=O [Compound 199, N-[2-(o-tolyl)phenyl]-4-oxo-1H-quinoline-3-carboxamide]
15 | 25 to 100 | CC(C)(C)OC(=O)NCc1cc(NC(=O)c2c[nH]c3ccccc3c2=O)ccc1C(C)(C)C [Compound 465, [5-[(4-oxo-1H-quinolin-3-yl)carbonylamino]-2-tert-butyl-phenyl]methylaminoformic acid tert-butyl ester]
16 | > 100 | CC(C)(C)c1ccc(NC(=O)c2c[nH]c3ccccc3c2=O)cc1CO [Compound 6, N-[3-(hydroxymethyl)-4-tert-butyl-phenyl]-4-oxo-1H-quinoline-3-carboxamide]
17 | < 25 | O=C(Nc1cnc2ccccc2c1)c1c[nH]c2ccccc2c1=O [Compound 75, 4-oxo-N-(3-quinolyl)-1H-quinoline-3-carboxamide]

Row | Emax [%] | SMILES
18 | 25 to 100 | C[C@H]1CCCN1c1ccc(NC(=O)c2c[nH]c3cccc(C(F)(F)F)c3c2=O)c(C(F)(F)F)c1 [Compound 669, (S)-N-(4-(2-methylpyrrolidin-1-yl)-2-(trifluoromethyl)phenyl)-4-oxo-5-(trifluoromethyl)-1,4-dihydroquinoline-3-carboxamide]
19 | 25 to 100 | CS(=O)(=O)Nc1cccc(NC(=O)c2c[nH]c3ccccc3c2=O)c1 [Compound 214, N-(3-methylsulfonylaminophenyl)-4-oxo-1H-quinoline-3-carboxamide]
20 | 25 to 100 | Cc1ccc2c(=O)c(C(=O)Nc3cc4[nH]ccc4cc3C(C)(C)C)c[nH]c2c1 [Compound 704, 7-methyl-4-oxo-N-(5-tert-butyl-1H-indol-6-yl)-1H-quinoline-3-carboxamide]
21 | 25 to 100 | Cc1ccc(NC(=O)c2c[nH]c3ccccc3c2=O)cc1 [Compound 31, 4-oxo-N-(p-tolyl)-1H-quinoline-3-carboxamide]
22 | 25 to 100 | O=C(Nc1ccc2[nH]ncc2c1)c1c[nH]c2ccccc2c1=O [Compound 217, N-(1H-indazol-5-yl)-4-oxo-1H-quinoline-3-carboxamide]
23 | 25 to 100 | CC(C)(C)c1c[nH]c2cc(NC(=O)c3c[nH]c4cccc(O)c4c3=O)ccc12 [Compound 535, 5-hydroxy-4-oxo-N-(3-tert-butyl-1H-indol-6-yl)-1H-quinoline-3-carboxamide]
24 | 25 to 100 | O=C(Nc1ccc(S(=O)(=O)N2CCOCC2)cc1)c1c[nH]c2ccccc2c1=O [Compound 276, N-(4-morpholinosulfonylphenyl)-4-oxo-1H-quinoline-3-carboxamide]
25 | 25 to 100 | N#Cc1c(Cl)cccc1NC(=O)c1c[nH]c2ccccc2c1=O [Compound 222, N-(3-chloro-2-cyano-phenyl)-4-oxo-1H-quinoline-3-carboxamide]
26 | > 100 | Cc1ccc2c(=O)c(C(=O)Nc3cc(O)c(C(C)(C)C)cc3C(C)(C)C)c[nH]c2c1 [Compound 640, N-(5-hydroxy-2,4-ditert-butyl-phenyl)-7-methyl-4-oxo-1H-quinoline-3-carboxamide]
27 | 25 to 100 | O=C(Nc1ccccc1-c1cccc(Cl)c1)c1c[nH]c2ccccc2c1=O [Compound 307, N-[2-(3-chlorophenyl)phenyl]-4-oxo-1H-quinoline-3-carboxamide]
28 | > 100 | C[C@H]1CCCCN1c1ccc(NC(=O)c2c[nH]c3ccccc3c2=O)c(C(F)(F)F)c1 [Compound 713, (S)-N-(4-(2-methylpiperidin-1-yl)-2-(trifluoromethyl)phenyl)-4-oxo-1,4-dihydroquinoline-3-carboxamide]
29 | > 100 | O=C(Nc1ccccc1-c1ccc(Oc2ccccc2)cc1)c1c[nH]c2ccccc2c1=O [Compound 410, 4-oxo-N-[2-(4-phenoxyphenyl)phenyl]-1H-quinoline-3-carboxamide]
30 | 25 to 100 | O=C(Nc1ccc2cc[nH]c2c1)c1cnc2c(F)cc(F)cc2c1O [Compound 377, 6,8-difluoro-4-hydroxy-N-(1H-indol-6-yl)quinoline-3-carboxamide]
31 | 25 to 100 | COCCn1ccc2cc(C(F)(F)F)c(NC(=O)c3c[nH]c4ccc(F)cc4c3=O)cc21 [Compound 566, 6-fluoro-N-[1-(2-methoxyethyl)-5-(trifluoromethyl)indol-6-yl]-4-oxo-1H-quinoline-3-carboxamide]
32 | 25 to 100 | CCc1ccccc1NC(=O)c1c[nH]c2ccccc2c1=O [Compound 72, N-(2-ethylphenyl)-4-oxo-1H-quinoline-3-carboxamide]
